Experimental data reported in patent US20140045823A1 (Neurocrine Biosciences, Inc., priority 2012, published 2014).

Molecular target: T1, human GPR119 (Homo sapiens, UniProt Q8TDV5)
T1 construct: expression vector for human GPR119 cDNA (Acc. No. NP_848566); expressed in transfected cells; Min-6/hGPR119
T1 sequence (Q8TDV5 1-335): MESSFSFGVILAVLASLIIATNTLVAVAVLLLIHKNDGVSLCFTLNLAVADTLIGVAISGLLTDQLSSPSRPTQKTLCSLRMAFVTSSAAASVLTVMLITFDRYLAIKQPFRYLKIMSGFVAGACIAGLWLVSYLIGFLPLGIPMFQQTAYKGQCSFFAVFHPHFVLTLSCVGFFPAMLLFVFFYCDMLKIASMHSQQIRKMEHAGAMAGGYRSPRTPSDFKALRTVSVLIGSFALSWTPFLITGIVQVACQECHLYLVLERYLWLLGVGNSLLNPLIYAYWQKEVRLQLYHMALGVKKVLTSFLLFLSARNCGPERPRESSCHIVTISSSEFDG
Experiment: AlphaScreen cAMP assay in MIN6 cells stably transfected with human GPR119
Type: cell-based
Details: Min-6/hGPR119 cells, 45 min at room temperature
Experimental: The compounds of formula I according to the invention modulate the activity of the G-protein-coupled receptor GPR119. The effect of the compounds on the activation of GPR119 and on the stimulation of intracellular cAMP concentration is determined using the AlphaScreen cAMP Assay Kit (Cat. No. #6760625R) made by PerkinElmer.
MIN6 cells [Miyazaki J et al. Endocrinology. 1990 July; 127(1):126-32] are stably transfected with an expression vector for human GPR119 cDNA (Acc. No. NP_848566). Min-6/hGPR119 cells are cultured in DMEM, 10% FBS, 50 μM β-mercaptoethanol, 0.3 mg/mL Geniticin, 2 mM GlutaMAX at 37° C. 5% CO2. For the assay, the cells are seeded in Optiplates (white, 384-well, 160 W—barcoded, TC, sterile with lid, Cat. No. #6007688 (Perkin Elmer); 10000 cells/well; 50 μl). The plates covered with lids are then incubated for 24 hours at 37° C./5% CO2. After the medium is aspirated from the wells completely, 10 μl of the test compound are added, the compounds are diluted using stimulating buffer (140 mM NaCl, 3.6 mM KCl, 0.5 mM NaH2PO4, 0.5 mM MgSO4, 1.5 mM CaCl2, 10 mM Hepes, 5 mM NaHCO3; pH 7.4. 0.5 mM IBMX and 0.1% BSA, the final DMSO concentration is 1%). After 45 minutes incubation at room temperature (approx. 20° C.), the cAMP concentrations are determined using the AlphaScreen cAMP Assay Kit (Cat. No. #6760625R from PerkinElmer).

| SMILES | EC50 [nM] |
| --- | --- |
| CC(C)(C)OC(=O)N1CCC(N(C(=O)c2coc(-c3cnco3)n2)C2CC2)CC1 [Example 27, 4-[([2,5′]Bioxazolyl-4-carbonyl)-cyclopropyl-amino]-piperidine-1-carboxylic acid tert-butyl ester] | 1800 |
| CC(C)(C)OC(=O)N1CCC(N(C(=O)c2coc(-c3ccc(S(C)(=O)=O)c(F)c3)n2)C2CC2)CC1 [Example 28, 4-{Cyclopropyl-[2-(3-fluoro-4-methanesulfonyl-phenyl)-oxazole-4-carbonyl]-amino}-piperidine-1-carboxylic acid tert-butyl ester] | 159 |
| CC(C)(C)OC(=O)N1CCC(N(C(=O)c2coc(-c3ccc(C#N)cc3)n2)C2CC2)CC1 [Example 29, 4-{[2-(4-Cyano-phenyl)-oxazole-4-carbonyl]-cyclopropyl-amino}-piperidine-1-carboxylic acid tert-butyl ester] | 118 |
| CC(C)(C)OC(=O)N1CCC(N(C(=O)c2cnc(-c3ccc(S(C)(=O)=O)cc3F)o2)C2CC2)CC1 [Example 30, 4-{Cyclopropyl-[2-(2-fluoro-4-methanesulfonyl-phenyl)-oxazole-5-carbonyl]-amino}-piperidine-1-carboxylic acid tert-butyl ester] | 176 |
| CC(C)(C)OC(=O)N1CCC(N(C(=O)c2cnc(-c3ccc(C#N)cc3F)o2)C2CC2)CC1 [Example 31, 4-{[2-(4-Cyano-2-fluoro-phenyl)-oxazole-5-carbonyl]-cyclopropyl-amino}-piperidine-1-carboxylic acid tert-butyl ester] | 48 |
| CC(C)(C)OC(=O)N1CCC(N(C(=O)c2cnc(-c3cnco3)o2)C2CC2)CC1 [Example 33, 4-[([2,5′]Bioxazolyl-5-carbonyl)-cyclopropyl-amino]-piperidine-1-carboxylic acid tert-butyl ester] | 639 |
| CC(C)(C)OC(=O)N1CCC(N(C(=O)c2cnc(-c3ccc(S(C)(=O)=O)c(F)c3)o2)C2CC2)CC1 [Example 34, 4-{Cyclopropyl-[2-(3-fluoro-4-methanesulfonyl-phenyl)-oxazole-5-carbonyl]-amino}-piperidine-1-carboxylic acid tert-butyl ester] | 86 |
| CC(C)(C)OC(=O)N1CCC(N(C(=O)c2cnc(-c3ccc(C#N)cc3)o2)C2CC2)CC1 [Example 35, 4-{[2-(4-Cyano-phenyl)-oxazole-5-carbonyl]-cyclopropyl-amino}-piperidine-1-carboxylic acid tert-butyl ester] | 136 |
| CC(C)(C)OC(=O)N1CCC(N(C(=O)c2ncc(-c3ccc(S(C)(=O)=O)cc3)o2)C2CC2)CC1 [Example 36, 4-{Cyclopropyl-[5-(4-methanesulfonyl-phenyl)-oxazole-2-carbonyl]-amino}-piperidine-1-carboxylic acid tert-butyl ester] | 358 |
| CC(C)(C)OC(=O)N1CCC(N(C(=O)c2ncc(-c3ccc(C#N)cc3)o2)C2CC2)CC1 [Example 37, 4-{[5-(4-Cyano-phenyl)-oxazole-2-carbonyl]-cyclopropyl-amino}-piperidine-1-carboxylic acid tert-butyl ester] | 142 |
| Cc1c(C(=O)N(C2CC2)C2CCN(C(=O)OC(C)(C)C)CC2)noc1-c1ccc(C#N)cc1 [Example 44, 4-{[5-(4-Cyano-phenyl)-4-methyl-isoxazole-3-carbonyl]-cyclopropyl-amino}-piperidine-1-carboxylic acid tert-butyl ester] | 47 |
| CC(C)(C)OC(=O)N1CCC(N(C(=O)c2csc(-c3ccc(C#N)cc3)n2)C2CC2)CC1 [Example 47, 4-{[2-(4-Cyano-phenyl)-thiazole-4-carbonyl]-cyclopropyl-amino}-piperidine-1-carboxylic acid tert-butyl ester] | 1860 |
| Cc1nc(-c2ccc(C#N)cc2F)sc1C(=O)N(C1CC1)C1CCN(C(=O)OC(C)(C)C)CC1 [Example 48, 4-{[2-(4-Cyano-2-fluoro-phenyl)-4-methyl-thiazole-5-carbonyl]-cyclopropyl-amino}-piperidine-1-carboxylic acid tert-butyl ester] | 1340 |
| CC(C)(C)OC(=O)N1CCC(N(C(=O)c2ncn(-c3ccc(C#N)cc3F)n2)C2CC2)CC1 [Example 49, 4-{[1-(4-Cyano-2-fluoro-phenyl)-1H-[1,2,4]triazole-3-carbonyl]-cyclopropyl-amino}-piperidine-1-carboxylic acid tert-butyl ester] | 149 |
| CC(C)(C)OC(=O)N1CCC(N(C(=O)c2ncn(-c3ccc(C#N)cc3)n2)C2CC2)CC1 [Example 50, 4-{[1-(4-Cyano-phenyl)-1H-[1,2,4]triazole-3-carbonyl]-cyclopropyl-amino}-piperidine-1-carboxylic acid tert-butyl ester] | 505 |
| CC(C)OC(=O)N1CCC(N(C(=O)c2cnc(-n3ccnc3)nc2)C2CC2)CC1 [Example 51, 4-[Cyclopropyl-(2-imidazol-1-yl-pyrimidine-5-carbonyl)-amino]-piperidine-1-carboxylic acid isopropyl ester] | 140 |
| CCc1nccn1-c1ncc(C(=O)N(C2CC2)C2CCN(C(=O)OC(C)C)CC2)cn1 [Example 52, 4-{Cyclopropyl-[2-(2-ethyl-imidazol-1-yl)-pyrimidine-5-carbonyl]-amino}-piperidine-1-carboxylic acid isopropyl ester] | 211 |
| CC(C)OC(=O)N1CCC(N(C(=O)c2cnc(-c3ccc(S(C)(=O)=O)cc3)nc2)C2CC2)CC1 [Example 53, 4-{Cyclopropyl-[2-(4-methanesulfonyl-phenyl)-pyrimidine-5-carbonyl]-amino}-piperidine-1-carboxylic acid isopropyl ester] | 120 |

The next compounds have a lower EC50 than those just listed; values first:

| EC50 [nM] | SMILES |
| --- | --- |
| 35 | CC(C)(C)OC(=O)N1CCC(N(C(=O)c2cnc(-c3ccc(C#N)c(F)c3)o2)C2CC2)CC1 [Example 32, 4-{[2-(4-Cyano-3-fluoro-phenyl)-oxazole-5-carbonyl]-cyclopropyl-amino}-piperidine-1-carboxylic acid tert-butyl ester] |
| 25 | Cc1c(C(=O)N(C2CC2)C2CCN(C(=O)OC(C)(C)C)CC2)noc1-c1ccc(C#N)c(F)c1 [Example 45, 4-{[5-(4-Cyano-3-fluoro-phenyl)-4-methyl-isoxazole-3-carbonyl]-cyclopropyl-amino}-piperidine-1-carboxylic acid tert-butyl ester] |
| 14 | CC(C)(C)OC(=O)N1CCC(N(C(=O)c2cc(-c3ccc(C#N)c(F)c3)no2)C2CC2)CC1 [Example 43, 4-{[3-(4-Cyano-3-fluoro-phenyl)-isoxazole-5-carbonyl]-cyclopropyl-amino}-piperidine-1-carboxylic acid tert-butyl ester] |
| 11 | CC(C)(C)OC(=O)N1CCC(N(C(=O)c2cc(-c3ccc(C#N)cc3)no2)C2CC2)CC1 [Example 41, 4-{[3-(4-Cyano-phenyl)-isoxazole-5-carbonyl]-cyclopropyl-amino}-piperidine-1-carboxylic acid tert-butyl ester] |
| 9 | CC(C)(C)OC(=O)N1CCC(N(C(=O)c2cc(-c3ccc(C#N)cc3)on2)C2CC2)CC1 [Example 38, 4-{-[5-(4-Cyano-phenyl)-isoxazole-3-carbonyl]-cyclopropyl-amino}-piperidine-1-carboxylic acid tert-butyl ester] |
| 7 | CC(C)(C)OC(=O)N1CCC(N(C(=O)c2cc(-c3ccc(C#N)c(F)c3)on2)C2CC2)CC1 [Example 40, 4-{[5-(4-Cyano-3-fluoro-phenyl)-isoxazole-3-carbonyl]-cyclopropyl-amino}-piperidine-1-carboxylic acid tert-butyl ester] |
| 3 | CC(C)(C)OC(=O)N1CCC(N(C(=O)c2cc(-c3ccc(C#N)cc3F)on2)C2CC2)CC1 [Example 39, 4-{[5-(4-Cyano-2-fluoro-phenyl)-isoxazole-3-carbonyl]-cyclopropyl-amino}-piperidine-1-carboxylic acid tert-butyl ester] |
| 3 | Cc1c(C(=O)N(C2CC2)C2CCN(C(=O)OC(C)(C)C)CC2)noc1-c1ccc(C#N)cc1F [Example 46, 4-{[5-(4-Cyano-2-fluoro-phenyl)-4-methyl-isoxazole-3-carbonyl]-cyclopropyl-amino}-piperidine-1-carboxylic acid tert-butyl ester] |
| 2 | CC(C)(C)OC(=O)N1CCC(N(C(=O)c2cc(-c3ccc(C#N)cc3F)no2)C2CC2)CC1 [Example 42, 4-{[3-(4-Cyano-2-fluoro-phenyl)-isoxazole-5-carbonyl]-cyclopropyl-amino}-piperidine-1-carboxylic acid tert-butyl ester] |
